Data reported in patent US8609849B1, “Hydroxylated sulfamides exhibiting neuroprotective action and their method of use” (Fox Chase Chemical Diversity Center, Inc., priority 2010, dated 2013).

Assays:
Hippocampal Cultures [1] = assay: Neuroprotection from glutamate (excitotoxicity), CFDA assay; format: cell-based; settings: Rattus norvegicus, read-out: NP from Glutamate CFDA EC50
Description: (§1) Cell cultures: All compounds are screened with dissociated hippocampal cultures derived from embryonic day 18 rats as the primary test system. With this preparation, primary neurons are used to test for toxicity as well as neuroprotection in a highly relevant experimental system to epilepsy. In brief, hippocampal tissue are obtained commercially through Brain Bits (Springfield, Ill.) and cultures prepared as previously described by Brewer (Brewer, G. J. Serum-free B27/neurobasal medium supports differentiated growth of neurons from the striatum, substantia nigra, septum, cerebral cortex, cerebellum and dentate gyms, J. Neurosci. Res. 1995, 42, 674-683.). The hippocampal neurons are platted at low density (10,000 cell/well) in a 96-well format and maintained in serum-free medium consisting of Neurobasal Medium supplemented with B27 and GlutaMAX (Gibco). Pre-coated poly-L-lysine coated plates are used because of the preferential adherence and survival of hippocampal neurons on this matrix support.
(§2) Potent neuroprotection is the distinguishing characteristic that separates this program's anticonvulsants from all other commercial drugs for epilepsy. The experimental details and the rationale for the implemented assays are essential in differentiating these compounds from that of others. The central objective of all neuroprotective assays was their relevancy to excitotoxicity and oxidative stress related to epilepsy. Both the amount of glutamate and hydrogen peroxide used in the assays, as well as the time of treatment and duration of the experiment, were designed to be relevant to epilepsy. Further, all time parameters employed in these studies were empirically determined to be within the limits of reversible toxic events, yet using amounts of glutamate and hydrogen peroxide that were relevant to the disease. In regard to glutamate toxicity, a critical feature was the duration of treatment of the hippocampal neurons. The rational for using a short 5 min treatment with glutamate was based on the observation of Randall and Thayer (Randall, R. D.; Thayer, S. A. Glutamate-induced calcium transient triggers calcium overload and neurotoxicity in rat hippocampal neurons, J. Neurosci. 1992, 12, 1882-1895). […] The rationale is that this intense burst of glutamate and resulting calcium overload is relevant to seizures and therefore was important data to capture in the screening assay. The amount of glutamate (30 μM) employed in our screening was based on the basal levels of glutamate observed in microdialysis measurements of hippocampus from epileptogenic patients (Cavus et al. Decreased hippocampal volume on MRI is associated with increased extracellular glutamate in epilepsy patients, Epilepsia, 2008, 49, 1358-1366.). In regard to hydrogen peroxide, the amount employed (10 μM) was detected in the hippocampus of rats after kainate-induced status epilepticus (Jarrett et. al., Mitochondrial DNA damage and impaired base excision repair during epileptogenesis, Neurobiol. Dis. 2008, 30, 130-138). To produce neural damage and death with these amounts of glutamate and hydrogen peroxide, the cultures were changed to a medium with significant depletion of antioxidant components in the defined medium supplement B-27 just prior to treatment with the compounds. This was performed to obtain a significant and reproducible toxic signal in the hippocampal neurons and because loss of antioxidant control may be a component of epileptogenesis (Waldbaum and Patel, Mitochondria, oxidative stress and temporal lobe epilepsy, Epilepsy Res. 2010 88, 23-45.; Wu et al., Mitochondrial DNA mutation-elicited oxidative stress, oxidative damage, and altered gene expression in cultured cells of patients with MERRF syndrome, Mol. Neurobiol. 2010, 41, 256-266.). Neuroprotection studies with hydrogen peroxide were conducted with cultures that were between day 12 and day 18. Studies of neuroprotection glutamate were conducted between day 19 and day 22. […]

Hippocampal Cultures [2] = assay: Neuroprotection from hydrogen peroxide (oxidative stress), propidium iodide assay; format: cell-based; settings: Rattus norvegicus, read-out: NP from HP PI EC50
Description: as §1, §2

Hippocampal Cultures [3] = assay: Neuroprotection from hydrogen peroxide (oxidative stress), CFDA assay; format: cell-based; settings: Rattus norvegicus, read-out: NP from HP CFDA EC50
Description: as §1, §2

Hippocampal Cultures [4] = assay: Neuroprotection from glutamate (excitotoxicity), propidium iodide assay; format: cell-based; settings: Rattus norvegicus, read-out: NP from Glutamate PI EC50
Description: as §1, §2

mice = assay: Maximal Electroshock Test (anti-seizure test); format: in vivo
Description: Seizure-related assays, Maximal electroshock test: The most definitive assay for antiseizure activity is the maximal electroshock (MES) test (Swinyard, E. A. Laboratory evaluation of antiepileptic drugs: review of laboratory methods, Epilepsia, 1969, 10, 107-119.). […] With both rodent assays, the duration of action is of high importance as well as the potency of the response.

[5] = 30 μM glutamate, hippocampal cultures, CFDA (neuronal viability)
[6] = 10 μM hydrogen peroxide, hippocampal cultures, propidium iodide (cell death)
[7] = 10 μM hydrogen peroxide, hippocampal cultures, CFDA (neuronal viability)
[8] = 30 μM glutamate, hippocampal cultures, propidium iodide (cell death)

SMILES | EC50 (Hippocampal Cultures [1]; [5]) [µM] | EC50 (Hippocampal Cultures [2]; [6]) [µM] | EC50 (Hippocampal Cultures [3]; [7]) [µM] | EC50 (Hippocampal Cultures [4]; [8]) [µM] | EC50 (Hippocampal Cultures [1]) [µM] | EC50 (Hippocampal Cultures [2]) [µM] | EC50 (Hippocampal Cultures [3]) [µM] | EC50 (Hippocampal Cultures [4]) [µM] | MES Duration (mice; at 100 mg/kg) | MES Duration (mice; no dose given) [h]
NS(=O)(=O)NCCC(O)c1ccc(F)cc1Cl (stereo not shown) [Example 8, N-[3-(2-Chloro-4-fluoro-phenyl)-3-hydroxy-propyl]-sulfamide] | > 300 | > 300 | > 300 | 10 |  |  |  |  |  | 
NS(=O)(=O)NCCC(O)c1csc2ccccc12 (stereo not shown) [Example 2, 3-Benzo[b]thiophen-3-yl-3-hydroxypropyl-1-sulfamide] |  |  |  |  | 100 | 30 | 3 | 3 |  | 
NS(=O)(=O)NCCC(O)c1ccccc1-c1ccccc1 (stereo not shown) [Example 23, 3-(2-Phenyl-phenyl)-3-hydroxypropyl-1-sulfamide] | 10 |  |  | 300 |  |  |  |  |  | 
NS(=O)(=O)NCCC(O)c1ccccc1[N+](=O)[O-] (stereo not shown) [Example 21, 3-(2-Nitro-phenyl)-3-hydroxypropyl-1-sulfamide] |  |  |  |  | > 300 |  |  | 10 |  | 
COc1ccccc1C(O)CCNS(N)(=O)=O (stereo not shown) [Example 14, 3-(2-methoxy-phenyl)-3-hydroxypropyl-1-sulfamide] |  |  |  |  | 0.01 | 0.01 | 10 | 0.1 |  | 
NS(=O)(=O)NCCC(O)c1ccccc1 (stereo not shown) [Example 9, N-(3-phenyl-3-hydroxy-propyl)-sulfamide] | 300 | > 300 | > 300 | > 300 |  |  |  |  |  | 
NS(=O)(=O)NCCC(O)c1ccccc1-c1cncc(Cl)c1 (stereo not shown) [Example 24, 3-[2-(5-Chloro-pyridine-3-yl)-phenyl]-3-hydroxypropyl-1-sulfamide] | 10 |  |  | > 300 |  |  |  |  |  | 
NS(=O)(=O)NCCC(O)c1ccccc1C(F)(F)F (stereo not shown) [Example 20, 3-(2-Trifluoromethyl-phenyl)-3-hydroxypropyl-1-sulfamide] |  |  |  |  | > 300 |  |  | > 300 |  | 
NS(=O)(=O)NCCC(O)c1ccccc1F (stereo not shown) [Example 6, 3-(2-Fluoro-phenyl)-3-hydroxypropyl-1-sulfamide] | 1 | 0.01 | 0.01 | 0.1 |  |  |  |  | 4 hr at 100 mg/kg | 
NS(=O)(=O)NCC[C@@H](O)c1ccccc1Cl [Example 17, (R)-3-(2-Chloro-phenyl)-3-hydroxypropyl-1-sulfamide] |  | > 300 | > 300 |  |  |  |  |  |  | 
NS(=O)(=O)NCC[C@H](O)c1ccccc1Cl [Example 18, (S)-3-(2-Chloro-phenyl)-3-hydroxypropyl-1-sulfamide] | 1 | 0.001 | 0.001 | 0.1 |  |  |  |  |  | 
NS(=O)(=O)NCCC(O)c1ccccc1Cl (stereo not shown) [Example 1, 3-(2-Chloro-phenyl)-3-hydroxypropyl-1-sulfamide] | 0.1 | 1 | 30 | 0.1 |  |  |  |  |  | 2
NS(=O)(=O)NCC[C@@H](O)c1ccccc1F [Example 16, (R)-3-(2-Fluoro-phenyl)-3-hydroxypropyl-1-sulfamide] |  |  |  |  |  | > 300 | > 300 |  |  | 
NS(=O)(=O)NCCC(O)c1cc(F)ccc1F (stereo not shown) [Example 7, 3-(2,5-Difluoro-phenyl)-3-hydroxypropyl-1-sulfamide] |  |  |  |  | 30 | 0.001 | 0.01 | 3 |  | 
NS(=O)(=O)NCC[C@H](O)c1ccccc1F [Example 15, (S)-3-(2-Fluoro-phenyl)-3-hydroxypropyl-1-sulfamide] |  |  |  |  | 0.01 | 0.001 | 0.001 | 0.01 | 4 hrs at 100 mg/kg | 
NS(=O)(=O)NCCC(O)c1c(F)cccc1F (stereo not shown) [Example 22, 3-(2,6-Difluoro-phenyl)-3-hydroxypropyl-1-sulfamide] |  |  |  |  | 100 | 0.01 | 1 | 300 |  | 
NS(=O)(=O)NCCC(O)c1ccccc1Br (stereo not shown) [Example 13, 3-(2-bromo-phenyl)-3-hydroxypropyl-1-sulfamide] | 10 | 10 | 300 | 100 |  |  |  |  |  | 
CCc1ccccc1C(O)CCNS(N)(=O)=O (stereo not shown) [Example 12, 3-(2-Ethyl-phenyl)-3-hydroxypropyl-1-sulfamide] | 0.01 | 0.01 | > 300 | 10 |  |  |  |  |  | 
CC(O)(CCNS(N)(=O)=O)c1ccccc1Cl (stereo not shown) [Example 3, 3-(2-Chloro-phenyl)-3-hydroxybutanyl-1-sulfamide] |  |  |  |  | > 300 | > 300 | 300 | > 300 |  | 
NS(=O)(=O)N1CCC(O)(c2ccccc2F)CC1 [Example 19, 4-(2-Fluorophenyl)-4-hydroxypiperidine-1-sulfonamide] | 1 | 1 | 1 | 0.001 |  |  |  |  | 6 hrs at 100 mg/kg | 
CC(O)(CCNS(N)(=O)=O)c1ccccc1F (stereo not shown) [Example 10, N-[3-(2-Fluoro-phenyl)-3-hydroxy-butyl]-sulfamide] | 10 | 300 | 0.1 | 10 |  |  |  |  |  | 
CC(C)(CNS(N)(=O)=O)C(O)c1ccccc1F (stereo not shown) [Example 5, 3-(2-Fluoro-phenyl)-3-hydroxy-2,2-dimethylpropyl-1-sulfamide] |  |  |  |  | 0.1 | > 300 | > 300 | 0.1 |  | 
Cc1ccccc1C(O)CCNS(N)(=O)=O (stereo not shown) [Example 11, 3-(2-Methyl-phenyl)-3-hydroxypropyl-1-sulfamide] | > 300 |  |  | > 300 |  |  |  |  |  | 
